Assay results taken from patent US7482379B2, “Propenoyl hydrazides” (priority 2004, dated 2009).
Peptide text beside a SMILES is read from it. * marks the point of attachment. AFC = O=c1cc(C(F)(F)F)c2ccc(N*)cc2o1; Cbz = O=C(OCc1ccccc1)*

Key:
[1] = target: T1, Caspase-3 (Homo sapiens, UniProt P42574); assay: Caspase-3 progress curve inhibition assay; settings: for k2 Caspase-3: second-order rate constant, Ac-DEVD-AMC substrate, Pipes buffer pH 7.2
T1 sequence (P42574 29-175 limits assumed): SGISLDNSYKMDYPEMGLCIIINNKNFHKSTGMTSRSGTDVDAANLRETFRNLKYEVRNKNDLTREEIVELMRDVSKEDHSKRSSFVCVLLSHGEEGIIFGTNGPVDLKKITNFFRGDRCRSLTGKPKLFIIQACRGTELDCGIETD
T1 sequence (P42574 176-277 limits assumed): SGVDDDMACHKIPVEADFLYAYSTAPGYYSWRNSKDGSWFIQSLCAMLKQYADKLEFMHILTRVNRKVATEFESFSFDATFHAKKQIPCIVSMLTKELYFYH

[2] = target: T2, Caspase-6 (Homo sapiens, UniProt P55212); assay: Caspase-6 progress curve inhibition assay; settings: for k2 Caspase-6: second-order rate constant, Ac-DEVD-AMC substrate, Pipes buffer pH 7.2
T2 sequence (P55212 24-179 limits assumed): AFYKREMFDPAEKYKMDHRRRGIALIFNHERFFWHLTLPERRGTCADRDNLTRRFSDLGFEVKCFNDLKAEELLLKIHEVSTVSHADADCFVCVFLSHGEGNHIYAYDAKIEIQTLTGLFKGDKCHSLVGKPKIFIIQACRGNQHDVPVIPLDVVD
T2 sequence (P55212 194-293 limits assumed): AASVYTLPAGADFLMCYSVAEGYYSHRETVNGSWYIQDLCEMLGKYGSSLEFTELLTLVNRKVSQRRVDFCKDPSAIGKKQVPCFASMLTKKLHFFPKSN

[3] = target: T3, Caspase-7 (Homo sapiens, UniProt P55210); assay: Caspase-7 progress curve inhibition assay; settings: for k2 Caspase-7: second-order rate constant, Ac-DEVD-AMC substrate, Pipes buffer pH 7.2
T3 sequence (P55210 24-198 limits assumed): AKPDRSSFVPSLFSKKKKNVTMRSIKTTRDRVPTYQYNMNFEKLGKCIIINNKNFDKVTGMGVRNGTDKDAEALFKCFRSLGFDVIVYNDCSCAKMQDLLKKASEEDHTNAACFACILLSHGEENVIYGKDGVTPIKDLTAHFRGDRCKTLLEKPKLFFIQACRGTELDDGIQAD
T3 sequence (P55210 207-303 limits assumed): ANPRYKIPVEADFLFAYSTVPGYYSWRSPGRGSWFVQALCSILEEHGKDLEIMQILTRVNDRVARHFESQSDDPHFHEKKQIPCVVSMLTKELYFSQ

[4] = target: Caspase-8 (Homo sapiens, UniProt Q14790); assay: Caspase-8 progress curve inhibition assay; settings: for k2 Caspase-8: second-order rate constant, Ac-DEVD-AMC substrate, Pipes buffer pH 7.2
Sequence of Caspase-8 (Q14790 217-374 limits assumed): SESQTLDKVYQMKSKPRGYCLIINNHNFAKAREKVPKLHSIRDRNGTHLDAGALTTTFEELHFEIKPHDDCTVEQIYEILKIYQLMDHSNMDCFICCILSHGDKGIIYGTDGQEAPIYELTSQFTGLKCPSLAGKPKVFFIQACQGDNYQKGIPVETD
Sequence of Caspase-8 (Q14790 385-479 limits assumed): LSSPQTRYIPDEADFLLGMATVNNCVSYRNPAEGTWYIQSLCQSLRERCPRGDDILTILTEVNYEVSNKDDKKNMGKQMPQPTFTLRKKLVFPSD

[5] = target: T4, Caspase-10 (Homo sapiens, UniProt Q92851); assay: Caspase-10 progress curve inhibition assay; settings: for k2 Caspase-10: second-order rate constant, Ac-DEVD-AMC substrate, Hepes/PEG buffer pH 7.0
T4 sequence (Q92851 220-415 limits assumed): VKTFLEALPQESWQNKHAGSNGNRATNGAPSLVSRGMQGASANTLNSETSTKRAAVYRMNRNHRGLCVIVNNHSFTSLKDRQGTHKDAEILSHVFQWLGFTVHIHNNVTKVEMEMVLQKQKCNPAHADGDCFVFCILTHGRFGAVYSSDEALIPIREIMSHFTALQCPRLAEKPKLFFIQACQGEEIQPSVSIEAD
T4 sequence (Q92851 416-521 limits assumed): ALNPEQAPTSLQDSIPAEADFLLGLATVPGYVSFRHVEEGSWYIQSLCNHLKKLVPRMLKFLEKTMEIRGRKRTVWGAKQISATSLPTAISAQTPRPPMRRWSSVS

[6] = target: T5, Caspase-2 (Homo sapiens, UniProt P42575); assay: Caspase-2 progress curve inhibition assay; settings: for k2 Caspase-2: second-order rate constant, Cbz-VDVAD-AFC substrate, Pipes buffer pH 7.2
T5 sequence (P42575 170-333 limits assumed): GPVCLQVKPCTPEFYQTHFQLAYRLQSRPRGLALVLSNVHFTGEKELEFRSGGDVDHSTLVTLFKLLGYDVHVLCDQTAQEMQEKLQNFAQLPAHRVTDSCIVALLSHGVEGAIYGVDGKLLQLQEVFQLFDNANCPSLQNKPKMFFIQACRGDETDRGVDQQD
T5 sequence (P42575 348-452 limits assumed): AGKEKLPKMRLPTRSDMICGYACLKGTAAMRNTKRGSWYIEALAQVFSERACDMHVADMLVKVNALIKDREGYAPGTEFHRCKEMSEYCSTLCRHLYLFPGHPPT

[7] = target: S. mansoni legumain (Schistosoma mansoni, UniProt P09841, N192C); assay: S. mansoni legumain (SmAE) inhibition assay; format: biochemical
Sequence of S. mansoni legumain (P09841 32-291 N192C): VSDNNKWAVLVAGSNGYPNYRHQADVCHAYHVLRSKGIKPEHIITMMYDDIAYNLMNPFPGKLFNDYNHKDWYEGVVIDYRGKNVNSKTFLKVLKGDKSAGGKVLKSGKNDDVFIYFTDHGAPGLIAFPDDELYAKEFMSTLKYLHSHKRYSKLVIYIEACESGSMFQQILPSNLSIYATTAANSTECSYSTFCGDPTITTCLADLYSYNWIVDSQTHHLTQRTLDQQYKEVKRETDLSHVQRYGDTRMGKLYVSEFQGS
Protocol: Studies with the propenoyl hydrazides using the schistosome legumain […], (Schistosoma mansoni asparaginyl endopeptidase) were also performed. […] The actual active site enzyme concentration is unknown. The lyophilized enzyme ([…]) was reconstituted in 1.5 mL 0.5 M sodium acetate, pH 4.5 containing 4 mM DTT, and left to stand at 37° C. for 3-4 hours to allow for auto-activation of the zymogen. In a black 96-well microtiter plate, 50 μL of activated enzyme was added to an equal volume of 0.1 M citrate-phosphate buffer pH 6.8 containing 4 mM DTT. Inhibitor stock solutions (20 mM) were prepared in DMSO. Serial dilutions (using water) of inhibitor were added (as 1 μL aliquots) to yield concentrations of between 2 and 0.00002 μM inhibitor. […] After incubating various inhibitor concentrations with enzyme, 100 μL of the same buffer containing 20 μM substrate (Cbz-Ala-Ala-Asn-AMC) was added to the wells and the reaction monitored at room temperature with linear kinetics up to 20 minutes. Inhibitors are tested in duplicate. A plot of the RFU/min versus the inhibitor concentration [μM] permitted calculation of an IC50 value and estimation of the kobs/[I].

| k2 Caspase-3 [1] | k2 Caspase-6 [2] | k2 Caspase-7 [3] | k2 Caspase-8 [4] | k2 Caspase-10 [5] | Compound | k2 Caspase-2 [6] | other results |
| --- | --- | --- | --- | --- | --- | --- | --- |
| 1,700,000 M^−1s^−1 | 8,470 M^−1s^−1 | 114,000 M^−1s^−1 | 121,000 M^−1s^−1 | 28,300 M^−1s^−1 | CC(C)[C@H](NC(=O)[C@H](CCC(=O)O)NC(=O)[C@H](CC(=O)O)NC(=O)OCc1ccccc1)C(=O)NN(CC(=O)O)C(=O)/C=C/C(=O)OCc1ccccc1 (relative stereo) [Cbz-Asp-Glu-Val-AAsp-CH═CH—COOCH2Ph, N^1-trans-(3-Benzyloxycarbonylpropenoyl)-N^2—(N-benzyloxycarbonylaspartylglutamylvalyl)-N^1-carboxymethylhydrazine] | – | – |
| 122,000 M^−1s^−1 | 1,800 M^−1s^−1 | 10,800 M^−1s^−1 | 9,720 M^−1s^−1 | 930 M⁻¹ s⁻¹ | CC(C)[C@H](NC(=O)[C@H](CCC(=O)O)NC(=O)[C@H](CC(=O)O)NC(=O)OCc1ccccc1)C(=O)NN(CC(=O)O)C(=O)/C=C/C(=O)c1ccccc1 (relative stereo) [Cbz-Asp-Glu-Val-AAsp-CH═CH—COPh, N^2—(N-Benzyloxycarbonylaspartylglutamylvalyl)-N^1-trans-(3-benzoylpropenoyl)-N^1-carboxymethylhydrazine] | 165 M⁻¹ s⁻¹ | – |
| 2,300 M^−1s^−1 | 23,350 M^−1s^−1 | 660 M⁻¹ s⁻¹ | 148,400 M^−1s^−1 | 15,200 M^−1s^−1 | CC[C@H](C)[C@H](NC(=O)OCc1ccccc1)C(=O)N[C@@H](CCC(=O)O)C(=O)N[C@H](C(=O)NN(CC(=O)O)C(=O)/C=C/C(=O)OCc1ccccc1)[C@@H](C)O (relative stereo) [Cbz-Ile-Glu-Thr-AAsp-CH═CH—COOCH2Ph, N^1-trans-(3-Benzyloxycarbonylpropenoyl)-N^2—(N-benzyloxycarbonylisoleucylglutamylthreonyl)-N^1-carboxylmethylhydrazine] | 110 M⁻¹ s⁻¹ | – |
| 4,600 M^−1s^−1 | 47,600 M^−1s^−1 | 1,570 M^−1s^−1 | 98,400 M^−1s^−1 | 18,900 M^−1s^−1 | CC(C)C[C@H](NC(=O)OCc1ccccc1)C(=O)N[C@@H](CCC(=O)O)C(=O)N[C@H](C(=O)NN(CC(=O)O)C(=O)/C=C/C(=O)OCc1ccccc1)[C@@H](C)O (relative stereo) [Cbz-Leu-Glu-Thr-AAsp-CH═CH—COOCH2Ph, N^1-trans-(3-Benzyloxycarbonylpropenoyl)-N^2—(N-benzyloxycarbonylleucylglutamylthreonyl)-N^1-carboxymethylhydrazine] | 480 M⁻¹ s⁻¹ | – |
| – | – | – | – | – | CC(=O)N[C@@H](CC(=O)O)C(=O)N[C@@H](CCC(=O)O)C(=O)N[C@H](C(=O)N[C@@H](CC(=O)O)C(=O)Nc1ccc2c(C)cc(=O)oc2c1)C(C)C [Ac-DEVD-AMC, reference compound] | – | Km ([1]; read-out: KM with caspase-3, substrate Ac-DEVD-AMC): 9.7 µM; Km ([2]; read-out: KM with caspase-6, substrate Ac-DEVD-AMC): 236 µM; Km ([3]; read-out: KM with caspase-7, substrate Ac-DEVD-AMC): 23 µM; Km ([4]; read-out: KM with caspase-8, substrate Ac-DEVD-AMC): 6.79 µM; Km ([5]; read-out: KM with caspase-10, substrate Ac-DEVD-AMC): 20.2 µM |
| – | – | – | – | – | CC(NC(=O)OCc1ccccc1)C(=O)NC(C)C(=O)NN(CC(N)=O)C(=O)C=CC(=O)N(C)C(Cc1ccccc1)C(=O)N(C)CCc1ccccc1 (stereo not drawn) [N^2—(N-Benzyloxycarbonylalanylalanyl)-N^1-carbamoylmethyl-N^1-trans-(3-methyl-(1-methylphenethylcarbamoyl)phenylethylcarbamoylpropenoyl)hydrazine] | – | IC50 [7]: 750 nM |
| – | – | – | – | – | C[C@H](NC(=O)OCc1ccccc1)C(=O)N[C@@H](C)C(=O)NN(CC(N)=O)C(=O)/C=C/C(=O)N(Cc1ccccc1)Cc1cccc2ccccc12 [N^2—(N-Benzyloxycarbonylalanylalanyl)-N^1-trans-(3-benzyl-1-naphthylmethylcarbamoylpropenoyl)-N^1-carbamoylmethylhydrazine] | – | IC50 [7]: 62 nM; kinact/KI ([7]; read-out: kobs/[I]): 6180 M⁻¹ s⁻¹ |
| – | – | – | – | – | CC(NC(=O)C(NC(=O)C(CC(=O)O)NC(=O)C(NC(=O)OCc1ccccc1)C(C)C)C(C)C)C(=O)NC(CC(=O)O)C(=O)Nc1ccc2c(C(F)(F)F)cc(=O)oc2c1 (stereo not shown) [Z-VDVAD-AFC, reference compound] (Cbz-VDVAD-{AFC}; configuration not given here) | – | Km ([6]; read-out: KM with caspase-2, substrate Z-VDVAD-AFC): 80.5 µM |

| Compound | k2 Caspase-3 [1] | k2 Caspase-6 [2] | k2 Caspase-7 [3] | k2 Caspase-8 [4] | k2 Caspase-10 [5] | k2 Caspase-2 [6] | other results |
| --- | --- | --- | --- | --- | --- | --- | --- |
| CCOC(=O)/C=C\C(=O)N(CC(=O)O)NC(=O)[C@@H](NC(=O)[C@H](CCC(=O)O)NC(=O)[C@H](CC(=O)O)NC(=O)OCc1ccccc1)C(C)C (relative stereo) [Cbz-Asp-Glu-Val-AAsp-CH═CH—COOEt (cis), N^2—(N-Benzyloxycarbonylaspartylglutamylvalyl)-N^1-carboxylmethyl-N^1-cis-(3-ethoxycarbonylpropenoyl)hydrazine] | 1,060,000 M^−1s^−1 | 11,000 M^−1s^−1 | 139,000 M^−1s^−1 | 181,000 M^−1s^−1 | 13,500 M^−1s^−1 | 26,200 ± ^ M^−1s^−1 | – |
| CCOC(=O)/C=C/C(=O)N(CC(=O)O)NC(=O)[C@@H](NC(=O)[C@H](CCC(=O)O)NC(=O)OCc1ccccc1)C(C)C (relative stereo) [Cbz-Glu-Val-AAsp-CH═CH—COOEt, N^2—(N-Benzyloxycarbonylglutamylvalyl)-N^1-carboxymethyl-N^1-trans-(3-ethoxycarbonylpropenoyl)hydrazine] | 38,600 M^−1s^−1 | 3,540 M^−1s^−1 | 52,400 M^−1s^−1 | – | 8,940 M^−1s^−1 | 90 M⁻¹ s⁻¹ | – |
| CCOC(=O)/C=C/C(=O)N(CC(=O)O)NC(=O)[C@@H](NC(=O)[C@H](CCC(=O)O)NC(=O)[C@@H](NC(=O)OCc1ccccc1)[C@@H](C)CC)[C@@H](C)O (relative stereo) [Cbz-Ile-Glu-Thr-AAsp-CH═CH—COOEt, N^2—(N-Benzyloxycarbonylisoleucylglutamylthreonyl)-N^1-carboxymethyl-N^1-trans-(3-ethoxycarbonylpropenoyl)hydrazine] | 6,740 M^−1s^−1 | 88,700 M^−1s^−1 | 530 M⁻¹ s⁻¹ | 56,500 M^−1s^−1 | 6,900 M^−1s^−1 | 300 M⁻¹ s⁻¹ | – |
